# Results: patent publication EP3494999A1, “PSMA LIGANDS FOR IMAGING AND ENDORADIOTHERAPY” (Technische Universität München, priority 2017, dated 2019)
# Numbered stars: 1 amine (or outer) side, 2 acyl side, 3 side chain; on linkers, the order of the positions; unused ones are H or OH. Square brackets hold non-standard residues; d marks the D form. Side chains are listed from the residue outwards. Peptide text beside a SMILES is read from it. * marks the point of attachment. X2 = O=C(O)CC[C@H](NC(=O)N[C@@H](CCC(=O)N[C@H](CCCN*)C(=O)O)C(=O)O)C(=O)O; X1 = O=C(O)CC[C@H](NC(=O)N[C@@H](CCCCNC(=O)CCCCCCC(=O)*)C(=O)O)C(=O)O; DOTAGA = O=C(O)CN1CCN(CC(=O)O)CCN(C(CCC(=O)*)C(=O)O)CCN(CC(=O)O)CC1; dPhe(4-NH2) = Nc1ccc(C[C@@H](N)C(=O)O)cc1; Phe(4-NH2) = Nc1ccc(C[C@H](N)C(=O)O)cc1; d2Nal = N[C@H](Cc1ccc2ccccc2c1)C(=O)O; Suc = O=C(CCC(=O)[*:2])[*:1]
# How the values were obtained:
# [1] = type: physicochemical
# Method: To a volume of 500 µL n-octanol, 0.5 to 1.0 MBq of the radiolabeled PSMA inhibitor in 500 µL PBS (pH = 7.4) was added and rigorously vortexted for 3 min (n = 6). For quantitative phase separation, the mixture was centrifuged at 6,000 g for 5 min (Biofuge 15, Heraus Sepatech, Osterode, Germany).
# PSMA [2] = biological target: T1, PSMA (Homo sapiens, UniProt Q04609); experiment: Determination of IC50: competitive binding against ([125I]I-BA)KuE on cells; set-up: endogenous in cells; LNCaP is named only for the xenografts; conditions: natLu complexes; displacement of ([125I]I-BA)KuE, 60 min on ice, HBSS (1% BSA)
# Method: The corresponding ^natLu^III-complexes were prepared from a 2 mM aqueous solution of the PSMA inhibitor with a 2.5 molar excess of LuCl3 (20 mM solution), heated to 95 °C for 30 min. After cooling, the ^natLu^III-chelate formation was confirmed using HPLC and MS. […] Calculated monoisotopic mass (C67H92N11O23 Lu) = 1,593.6 found: m/z = 1,595.0 [M+H]^+, 798.2 [M+2H]^2+. [^natLu]DOTAGA-(4-NH2)f-y-nal-k-KuE ([^natLu]PSMA-5): HPLC (10 to 60% B in 15 min.): tR = 9.0 min K' = 3.5. Calculated monoisotopic mass (C76H102N13O24 Lu) = 1,755.7 found: m/z = 1,756.4 [M+H]^+, 879.0 [M+2H]^2+. [^natLu]DOTAGA-(4-NH2)F-y-nal-k-KuE ([^natLu]PSMA-6): HPLC (10 to 60% B in 15 min.): tR = 9.1 min K' = 3.6. Calculated monoisotopic mass (C76H102N13O24 Lu) = 1,755.7 found: m/z = 1,756.6 [M+H]^+, 878.8 [M+2H]^2+. [^natLu]DOTAGA-y-nal-k(Suc-(HO-δ-orn-γ-EuE))-OH ([^natLu]PSMA-7): HPLC (10 to 60 % B in 15 min): tR = 7.8 min K' = 2.9. Calculated monoisotopic mass (C67H89N12O26 Lu): 1,652.5 found: m/z = 1,653.9 [M+H]^+. [^natLu]DOTAGA-(4-NH2)f-y-nal-k(Suc-(HO-δ-orn-γ-EuE))-OH ([^natLu]PSMA-8): HPLC (10 to 60 % B in 15 min): tR = 7.3 min K' = 2.7. Calculated monoisotopic mass (C67H99N14O27Lu): 1,814.6 found: m/z = 1,815.9 [M+H]^+, 908.3 [M+2H]^2+. [^natLu]DOTAGA-(4-NH2)F-y-nal-k(Suc-(HO-δ-orn-γ-EuE))-OH ([^natLu]PSMA-9): HPLC (10 to 60 % B in 15 min): tR = 7.2 min K' = 2.6. Calculated monoisotopic mass (C67H99N14O27Lu): 1,814.6 found: m/z = 1,815.6 [M+H]^+, 908.3 [M+2H]^2+. [^natLu]DOTAGA-y-nal-k(Glut-(l-f)-KuE) ([^natLu]PSMA-10): HPLC (25 to 55% B in 15 min): tR = 10.6 min K' = 4.9. Calculated monoisotopic mass (C73H94IN12O24Lu): 1,825.5 found: m/z = 1,826.5 [M+H]^+, 913.8 [M+2H]^2+. [^natLu]DOTAGA-(4-NH2)f-y-nal-k(Glut-(l-f)-KuE) ([^natLu]PSMA-11): HPLC (10 to 60% B in 20 min): tR = 9.7 min K' = 3.9. Calculated monoisotopic mass (C82H104IN14O25Lu): 1,986.6 found: m/z = 1,987.5 [M+H]^+, 994.3 [M+2H]^2+.
# The reaction solution was incubated for 10 min at RT, loaded on a cartridge and rinsed with 10 mL water (C18 Sep Pak Plus cartridge, preconditioned with 10 mL MeOH and 10 mL water). After elution with 2.0 mL of a 1:1 mix (v/v) of EtOH/MeCN, the radioactive solution was evaporated to dryness under a gentle nitrogen stream and treated with 200 µL TFA for 30 min with subsequent evaporation of TFA.
# After removal of the culture medium, the cells were treated once with 500 µL of HBSS (Hank's balanced salt solution, Biochrom, Berlin, Germany, with addition of 1% bovine serum albumin (BSA)) and left 15 min on ice for equilibration in 200 µL HBSS (1% BSA). […] All experiments were performed at least three times for each concentration. After 60 min incubation on ice, the experiment was terminated by removal of the medium and consecutive rinsing with 200 µL of HBSS. The media of both steps were combined in one fraction and represent the amount of free radioligand. Afterwards, the cells were lysed with 250 µL of 1.0 M NaOH and united with the 200 µL HBSS of the following wash step. Quantification of bound and free radioligand was accomplished in a γ-counter.
# PSMA [3] = biological target: T1, PSMA; experiment: Internalization of radiolabeled PSMA inhibitors into cells (PMPA blockade); type: cell-based; set-up: endogenous in cells; LNCaP is named only for the xenografts; conditions: 177Lu-labeled inhibitors, 37°C; reference basis of the % not stated
# Method: The ^177Lu-labeled compounds, for in vitro studies, were prepared as previously described (Sosabowski, J.K. and S.J. Mather, Conjugation of DOTA-like chelating agents to peptides and radiolabeling with trivalent metallic isotopes. Nat. Protocols, 2006. 1(2): p. 972-976) with minor modifications and used without further purification. In short, to a reaction volume of 10 µL 1.0 M NH4OAc buffer pH = 5.9 was added 0.75 to 1.0 nmol tracer (7.5 to 10 µL), 10 to 40 MBq ^177LuCl3 (Specific Activity (AS) > 3000 GBq/mg, 740 MBq/mL, 0.04 M HCl, ITG, Garching, Germany) and finally filled up to 100 µL with trace-pure Water (Merck, Darmstadt, Germany). The reaction mixture was heated for 30 min at 95°C and the radiochemical purity was determined using Radio-TLC.
# […] Each well was treated with either 25 µL of either DMEM-F12 (5% BSA) or a 100 µM PMPA solution for blockade. Next, 25 µL of the respective ^68Ga-and ^177Lu-labeled PSMA inhibitors (2.0 nM / 5.0 nM) was added and the cells incubated at 37°C for 5, 15, 30 and 60 min, respectively. The experiment was terminated by placing the 24-well plate on ice for 3 min and consecutive removal of the medium. Each well was rinsed with 250 µL HBSS and the fractions from these first two steps combined, representing the amount of free radioligand. Removal of surface bound activity was accomplished by incubation of the cells with 250 µL of ice-cold PMPA (10 µM in PBS) solution for 5 min and rinsed again with another 250 µL of ice-cold PBS. The internalized activity was determined by incubation of the cells in 250 µL 1.0 M NaOH and the combination with the fraction of a subsequent wash step with 250 µL 1.0 M NaOH. Each experiment (control and blockade) was performed in triplicate for each time point. Free, surface bound and internalized activity was quantified in a γ-counter.
# T1 sequence (Q04609 whole entry): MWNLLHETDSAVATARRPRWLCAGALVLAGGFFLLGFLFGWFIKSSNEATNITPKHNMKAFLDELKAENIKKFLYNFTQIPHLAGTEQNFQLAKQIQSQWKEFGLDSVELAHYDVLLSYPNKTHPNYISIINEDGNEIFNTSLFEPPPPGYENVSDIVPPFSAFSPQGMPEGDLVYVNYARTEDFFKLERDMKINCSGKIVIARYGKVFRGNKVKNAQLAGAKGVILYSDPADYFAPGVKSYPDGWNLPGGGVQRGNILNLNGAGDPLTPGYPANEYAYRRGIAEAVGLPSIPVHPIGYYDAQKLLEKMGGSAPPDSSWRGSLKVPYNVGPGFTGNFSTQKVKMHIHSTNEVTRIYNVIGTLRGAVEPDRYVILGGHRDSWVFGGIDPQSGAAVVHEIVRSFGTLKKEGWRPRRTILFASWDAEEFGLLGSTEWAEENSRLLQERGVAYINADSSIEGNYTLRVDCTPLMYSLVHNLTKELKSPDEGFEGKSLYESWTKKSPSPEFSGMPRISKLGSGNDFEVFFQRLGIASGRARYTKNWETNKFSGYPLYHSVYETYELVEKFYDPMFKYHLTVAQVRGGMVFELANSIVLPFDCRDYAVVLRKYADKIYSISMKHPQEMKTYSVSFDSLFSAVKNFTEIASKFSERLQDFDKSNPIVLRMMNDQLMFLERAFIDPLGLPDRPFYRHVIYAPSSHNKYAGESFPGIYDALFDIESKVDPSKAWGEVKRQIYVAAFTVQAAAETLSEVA
IC50 (PSMA [2]) [nM],Internalization [%] (PSMA [3]),Structure (SMILES),logP [1]
5.8 ± 1,111.3 ± 11.1,"Nc1ccc(C[C@@H](NC(=O)CCC(C(=O)O)N2CCN(CC(=O)O)CCN(CC(=O)O)CCN(CC(=O)O)CC2)C(=O)N[C@H](Cc2ccc(O)cc2)C(=O)N[C@H](Cc2ccc3ccccc3c2)C(=O)N[C@H](CCCCNC(=O)CCCCCCC(=O)NCCCC[C@H](NC(=O)N[C@@H](CCC(=O)O)C(=O)O)C(=O)O)C(=O)O)cc1 (stereo partly shown) [[^nat/177Lu]PSMA-5, DOTAGA-(4-NH2)f-y-nal-k-KuE, metal not drawn] ({DOTAGA}-[dPhe(4-NH2)][dY][d2Nal][dK](X1)-OH)",-4.11 ± 0.06
2.5 ± 0.6,–,"Nc1ccc(C[C@H](NC(=O)CCC(C(=O)O)N2CCN(CC(=O)O)CCN(CC(=O)O)CCN(CC(=O)O)CC2)C(=O)N[C@H](Cc2ccc(O)cc2)C(=O)N[C@H](Cc2ccc3ccccc3c2)C(=O)N[C@H](CCCCNC(=O)CCC(=O)NCCC[C@@H](NC(=O)CC[C@H](NC(=O)N[C@@H](CCC(=O)O)C(=O)O)C(=O)O)C(=O)O)C(=O)O)cc1 (stereo partly shown) [[^nat/177Lu]PSMA-9, DOTAGA-(4-NH2)F-y-nal-k(Suc-(HO-δ-orn-γ-EuE))-OH, metal not drawn] ({DOTAGA}-[Phe(4-NH2)][dY][d2Nal][dK]([Suc-X2])-OH)",-4.01 ± 0.11
2.5 ± 0.6,207.3 ± 8.5,"Nc1ccc(C[C@@H](NC(=O)CCC(C(=O)O)N2CCN(CC(=O)O)CCN(CC(=O)O)CCN(CC(=O)O)CC2)C(=O)N[C@H](Cc2ccc(O)cc2)C(=O)N[C@H](Cc2ccc3ccccc3c2)C(=O)N[C@H](CCCCNC(=O)CCC(=O)NCCC[C@@H](NC(=O)CC[C@H](NC(=O)N[C@@H](CCC(=O)O)C(=O)O)C(=O)O)C(=O)O)C(=O)O)cc1 (stereo partly shown) [[^nat/177Lu]PSMA-8, DOTAGA-(4-NH2)f-y-nal-k(Suc-(HO-δ-orn-γ-EuE))-OH, metal not drawn] ({DOTAGA}-[dPhe(4-NH2)][dY][d2Nal][dK]([Suc-X2])-OH)","-4.02 ± 0,25"
3.1 ± 1,216.2 ± 9.2,"O=C(O)CC[C@H](NC(=O)N[C@@H](CCC(=O)N[C@H](CCCNC(=O)CCC(=O)NCCCC[C@@H](NC(=O)[C@@H](Cc1ccc2ccccc2c1)NC(=O)[C@@H](Cc1ccc(O)cc1)NC(=O)CCC(C(=O)O)N1CCN(CC(=O)O)CCN(CC(=O)O)CCN(CC(=O)O)CC1)C(=O)O)C(=O)O)C(=O)O)C(=O)O (stereo partly shown) [[^nat/177Lu]PSMA-7, DOTAGA-y-nal-k(Suc-(HO-δ-orn-γ-EuE))-OH, metal not drawn, reference compound]",–
